Like-named read-outs stand apart in the source and are kept apart here.
Columns and labels:
FAAH [1] = molecular target: T1, FAAH (Mus musculus, UniProt O08914); assay: In vitro competitive activity-based protein profiling, FAAH, mouse; details: read-out: FAAH % inh. 1 μM (mouse)
T1 sequence (O08914 1-579): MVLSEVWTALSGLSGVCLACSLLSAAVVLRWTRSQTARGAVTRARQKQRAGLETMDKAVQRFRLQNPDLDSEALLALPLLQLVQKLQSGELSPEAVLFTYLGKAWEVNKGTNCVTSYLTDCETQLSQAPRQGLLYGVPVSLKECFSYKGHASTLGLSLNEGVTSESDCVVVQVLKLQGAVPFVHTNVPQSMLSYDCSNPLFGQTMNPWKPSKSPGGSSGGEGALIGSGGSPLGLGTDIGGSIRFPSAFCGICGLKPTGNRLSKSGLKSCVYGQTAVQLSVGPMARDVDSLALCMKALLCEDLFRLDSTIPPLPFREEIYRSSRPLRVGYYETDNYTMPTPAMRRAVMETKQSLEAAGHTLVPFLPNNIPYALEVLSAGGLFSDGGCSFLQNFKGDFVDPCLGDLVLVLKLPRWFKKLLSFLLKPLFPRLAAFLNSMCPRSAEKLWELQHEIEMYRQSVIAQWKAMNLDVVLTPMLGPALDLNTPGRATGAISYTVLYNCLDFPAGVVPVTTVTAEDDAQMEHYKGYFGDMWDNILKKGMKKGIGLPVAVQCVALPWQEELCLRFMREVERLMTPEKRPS
Procedure: (§1) Biological Evaluation In Vitro Competitive Activity-Based Protein Profiling.
(§2) Proteomes (mouse brain membrane fraction for mouse assays; human prefrontal cortex membrane fractions for human assays) (50 mL, 1.0 mg/mL total protein concentration) were preincubated with varying concentrations of inhibitors at 37° C. After 30 min, FP-Rh (1.0 mL, 50 mM in DMSO) was added and the mixture was incubated for another 30 min at 37° C. Reactions were quenched with SDS loading buffer (15 μL—4λ) and run on SDS-PAGE.

FAAH [2] = molecular target: T2, FAAH (Homo sapiens, UniProt O00519); assay: In vitro competitive activity-based protein profiling, FAAH, human; details: for inhibition at 1 µM: read-out: FAAH % inh. 1 μM (human)
T2 sequence (O00519 1-579): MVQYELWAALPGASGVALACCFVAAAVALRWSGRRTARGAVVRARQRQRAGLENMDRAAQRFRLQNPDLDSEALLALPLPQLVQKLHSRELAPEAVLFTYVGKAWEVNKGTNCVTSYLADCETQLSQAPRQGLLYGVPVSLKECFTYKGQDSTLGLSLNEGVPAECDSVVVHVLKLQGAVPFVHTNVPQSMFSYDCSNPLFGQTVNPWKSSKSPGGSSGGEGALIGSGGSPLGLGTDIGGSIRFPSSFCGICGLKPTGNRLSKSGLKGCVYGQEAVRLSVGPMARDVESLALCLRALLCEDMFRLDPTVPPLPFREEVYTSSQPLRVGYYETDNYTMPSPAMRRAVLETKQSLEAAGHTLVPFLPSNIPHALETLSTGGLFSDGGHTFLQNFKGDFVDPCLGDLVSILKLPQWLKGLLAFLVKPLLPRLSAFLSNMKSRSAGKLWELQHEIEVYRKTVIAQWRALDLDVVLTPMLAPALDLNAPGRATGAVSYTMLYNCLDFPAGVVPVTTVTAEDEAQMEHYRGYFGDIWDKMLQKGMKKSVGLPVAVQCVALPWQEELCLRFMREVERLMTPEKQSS
Procedure: as §1, §2

MAGL [3] = molecular target: T3, MAGL (Mus musculus, UniProt O35678); assay: In vitro competitive activity-based protein profiling, MAGL, mouse; details: read-out: MAGL % inh. 1 μM (mouse)
T3 sequence (O35678 1-303): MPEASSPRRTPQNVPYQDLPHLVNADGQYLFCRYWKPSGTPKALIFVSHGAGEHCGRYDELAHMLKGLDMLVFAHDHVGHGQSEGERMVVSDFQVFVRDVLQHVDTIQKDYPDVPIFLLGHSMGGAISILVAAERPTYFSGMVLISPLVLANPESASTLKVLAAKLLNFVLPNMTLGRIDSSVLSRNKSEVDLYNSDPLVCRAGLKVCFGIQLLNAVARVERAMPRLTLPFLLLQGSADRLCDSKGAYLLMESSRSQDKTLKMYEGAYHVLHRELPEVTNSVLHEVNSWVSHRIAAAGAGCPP

MAGL [4] = molecular target: T4, MAGL (Homo sapiens, UniProt Q99685); assay: In vitro competitive activity-based protein profiling, MAGL, human; details: for inhibition at 1 µM: read-out: MAGL % inh. 1 μM (human)
T4 sequence (Q99685 1-303): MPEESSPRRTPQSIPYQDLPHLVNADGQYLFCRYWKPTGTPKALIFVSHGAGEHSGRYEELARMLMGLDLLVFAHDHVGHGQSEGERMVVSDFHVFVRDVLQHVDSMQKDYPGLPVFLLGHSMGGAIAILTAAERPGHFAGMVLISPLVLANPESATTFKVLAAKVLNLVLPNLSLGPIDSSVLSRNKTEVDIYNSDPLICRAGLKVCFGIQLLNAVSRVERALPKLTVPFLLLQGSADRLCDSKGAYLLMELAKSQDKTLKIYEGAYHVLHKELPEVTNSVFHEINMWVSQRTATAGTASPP

FAAH [5] = molecular target: T1, FAAH; assay: Mouse brain proteomes from inhibitor treated mice (oral gavage, sacrificed 4 h after administration), FAAH; type: in vivo; set-up: mouse brain membrane fraction for mouse assays; from tissue; host or cells: mouse brain (membrane fraction in vitro; brain proteomes of treated C57Bl/6J mice in vivo); details: 5 mg/kg oral gavage, brain proteome 4 h after administration, read-out: FAAH % inh. 5 mg/kg (mouse)
MAGL [6] = molecular target: T3, MAGL; assay: Mouse brain proteomes from inhibitor treated mice (oral gavage, sacrificed 4 h after administration); type: in vivo; set-up: mouse brain membrane fraction for mouse assays; from tissue; host or cells: mouse brain (membrane fraction in vitro; brain proteomes of treated C57Bl/6J mice in vivo); details: 5 mg/kg oral gavage, brain proteome 4 h after administration, read-out: MAGL % inh. 5 mg/kg (mouse)

inhibition at 1 µM (FAAH [1]) [%]	inhibition at 1 µM (FAAH [2]) [%]	inhibition at 1 µM (MAGL [3]) [%]	inhibition at 1 µM (MAGL [4]) [%]	inhibition at 5 mg/kg (FAAH [5]) [%]	inhibition at 5 mg/kg (MAGL [6]) [%]	IC50 (FAAH [2]) [µM]	IC50 (MAGL [4]) [µM]	Compound	inhibition at 5 mg/kg (MAGL [6]; C57Bl/6J mice) [%]
0 to 25	0 to 25	> 75	> 75	0 to 25	0 to 25			O=C(O)c1ccn(C(=O)N2CCC(Oc3ccc(Cl)c(N4CCCC4)c3)CC2)n1 [Example 121, 1-(4-(4-chloro-3-(pyrrolidin-1-yl)phenoxy)piperidine-1-carbonyl)-1H-pyrazole-3-carboxylic acid]	
0 to 25	0 to 25	> 75	> 75	0 to 25	0 to 25			O=C(O)c1ccn(C(=O)N2CCC(Oc3ccc(Cl)cc3N3CCCC3)CC2)n1 [Example 11, 1-(4-(4-Chloro-2-(pyrrolidin-1-yl)phenoxy)piperidine-1-carbonyl)-1H-pyrazole-3-carboxylic Acid]	
0 to 25	50 to 75	> 75	> 75	0 to 25	0 to 25	0.1 to 1		O=C(O)c1ccn(C(=O)N2CCN(Cc3cccc(Oc4ccc(F)cc4)c3)CC2)n1 [Example 51, 1-(4-(3-(4-fluorophenoxy)benzyl)piperazine-1-carbonyl)-1H-pyrazole-3-carboxylic acid]	
> 75	> 75	> 75	> 75	0 to 25	0 to 25			O=C(O)c1nn(C(=O)N2CCN(Cc3cccc(Oc4ccc(Cl)cc4)c3)CC2)cc1Cl [Example 132, 4-chloro-1-(4-(3-(4-chlorophenoxy)benzyl)piperazine-1-carbonyl)-1H-pyrazole-3-carboxylic acid]	
0 to 25	> 75	> 75	> 75	0 to 25	0 to 25	0.1 to 1	0.1 to 1	O=C(O)c1ccn(C(=O)N2CC3CN(Cc4cccc(Oc5ccc(Cl)cc5)c4)CC3C2)n1 (stereo not drawn) [Example 116, 1-(5-(3-(4-chlorophenoxy)benzyl)octahydro-pyrrolo[3,4-c]pyrrole-2-carbonyl)-1H-pyrazole-3-carboxylic acid]	
0 to 25	0 to 25	> 75	> 75	0 to 25	0 to 25			O=C(O)c1ccn(C(=O)N2CCN(Cc3ccc(C(F)(F)F)c(N4CCCC4)c3)CC2)n1 [Example 7, 1-(4-(3-(Pyrrolidin-1-yl)-4-(trifluoromethyl)benzyl)piperazine-1-carbonyl)-1H-pyrazole-3-carboxylic Acid]	
0 to 25	0 to 25	> 75	> 75	0 to 25	0 to 25			O=C(O)c1ccn(C(=O)N2CCN(Cc3ccc(C(F)(F)F)cc3N3CC4COCC4C3)CC2)n1 (stereo not drawn) [Example 106, 1-(4-(2-(tetrahydro-1H-furo[3,4-c]pyrrol-5(3H)-yl)-4-(trifluoromethyl)benzyl)piperazine-1-carbonyl)-1H-pyrazole-3-carboxylic acid]	
0 to 25	0 to 25	> 75	> 75	0 to 25	0 to 25	1 to 10		O=C(O)c1ccn(C(=O)N2CCN(Cc3ccc(C(F)(F)F)cc3N3CCCCC3)CC2)n1 [Example 100, 1-(4-(2-(piperidin-1-yl)-4-(trifluoromethyl)benzyl)piperazine-1-carbonyl)-1H-pyrazole-3-carboxylic acid]	
0 to 25	0 to 25	> 75	> 75	0 to 25	0 to 25			CN(Cc1ccc(C(F)(F)F)cc1-c1nccs1)C1(C)CCN(C(=O)n2ccc(C(=O)O)n2)CC1 [Example 10, 1-(4-methyl-4-(methyl(2-(thiazol-2-yl)-4-(trifluoromethyl)benzyl)amino)piperidine-1-carbonyl)-1H-pyrazole-3-carboxylic Acid]	
0 to 25	0 to 25	> 75	> 75	0 to 25	0 to 25			Cc1cn(C(=O)N2CCC3(CC2)CN(Cc2ccc(C(F)(F)F)cc2N2CCCC2)C3)nc1C(=O)O [Example 135, 4-methyl-1-(2-(2-(pyrrolidin-1-yl)-4-(trifluoromethyl)benzyl)-2,7-diazaspiro[3.5]non-ane-7-carbonyl)-1H-pyrazole-3-carboxylic acid]	
0 to 25		> 75		0 to 25	0 to 25	1 to 10		O=C(O)c1ccn(C(=O)N2CCN(Cc3ccc(C(F)(F)F)cc3N3CCOCC3)CC2)n1 [Example 3, 1-(4-(2-Morpholino-4-(trifluoromethyl)benzyl)piperazine-1-carbonyl)-1H-pyrazole-3-carboxylic Acid]	
		> 75	> 75		0 to 25			O=C(O)c1nn(C(=O)N2CCC3(CCN(Cc4cccc(Cl)c4C(F)(F)F)C3)CC2)cc1Cl [Example 26, 4-Chloro-1-(2-(3-chloro-2-(trifluoromethyl)benzyl)-2,8-diazaspiro[4.5]decane-8-carbonyl)-1H-pyrazole-3-carboxylic Acid]	

Compound	inhibition at 1 µM (FAAH [1]) [%]	inhibition at 1 µM (FAAH [2]) [%]	inhibition at 1 µM (MAGL [3]) [%]	inhibition at 1 µM (MAGL [4]) [%]	inhibition at 5 mg/kg (FAAH [5]) [%]	inhibition at 5 mg/kg (MAGL [6]) [%]	IC50 (FAAH [2]) [µM]	IC50 (MAGL [4]) [µM]	inhibition at 5 mg/kg (MAGL [6]; C57Bl/6J mice) [%]
C[C@H]1CN(Cc2ccc(C(F)(F)F)cc2N2C3CCC2COC3)CCN1C(=O)n1ccc(C(=O)O)n1 [Example 395, 1-((2S)-4-(2-(3-oxa-8-azabicyclo[3.2.1]octan-8-yl)-4-(trifluoromethyl)benzyl)-2-methylpiperazine-1-carbonyl)-1H-pyrazole-3-carboxylic acid]			> 75	> 75					0 to 25
